Test results from PMC7703437, “In Vitro Hepatic Metabolism of Curcumin Diethyl Disuccinate by Liver S9 from Different Animal Species” (Frontiers in Pharmacology, 2020).
Values joined by “and” are separate entries in the source; they are usually repeats but may differ in a detail not shown here. Identical values can stand only once.

System: HLS9
Assay: CDD depletion in HLS9 0.02 mg/ml (optimisation of incubation condition)
Format: in vitro ADME, human
Conditions: CDD 3 μM
Experimental: The metabolism profiles of CDD and curcumin formation profile were investigated against HLS9, MLS9, DLS9 and RLS9. A stock solution of CDD was prepared at 150 µM in 50% acetonitrile in water before use. The metabolism study was initiated by spiking a 588 µl pre-incubated LS9 with 12 µl CDD stock solution, and subsequently incubated at 37°C. The final concentrations of CDD and LS9 were 3 µM and 0.02 mg/ml, respectively. A 50 µl aliquot from the mixture was collected at 0.5, 1, 2, 3, 4, 5, 10, 15, 30, 45 and 60 min and was immediately mixed with 100 µl of ice-cold acetonitrile containing 0.45 µM of internal standard DMC to terminate the metabolic reaction. […] Samples of 120 µl of supernatant wee diluted with 40 µl of water prior to UHPLC analysis (Agilent series 1290, Agilent Technology, USA) by means of protocol outlined in Materials and Methods:“In vitro Metabolism Profiling of Curcumin Diethyl Disuccinate”. The sample at 0 min was prepared as other samples except that heat-inactivated HLS9, MLS9, DLS9 and RLS9 (80°C for 20 min; 1 mg/ml protein) were used. Duplicates were conducted for each experiment.
The peak area ratios of CDD and curcumin to internal standard in the supernatant were determined. The percent contents of CDD and curcumin were plotted against incubation time. The depletion of CDD was calculated with reference to the initial concentration. The saturated substrate was defined as % depletion less than 30.

With `CCOC(=O)CCC(=O)Oc1ccc(/C=C/C(=O)/C=C(O)/C=C/c2ccc(OC(=O)CCC(=O)OCC)c(OC)c2)cc1OC` [CDD, curcumin diethyl disuccinate] the “% CDD remaining” value (0.5 min) was 82.88%, the “%Depletion of CDD” value (0.5 min) was 17.12% and the “% CDD remaining” value (1 min) was 80.95%. For the same compound, the “%Depletion of CDD” value (1 min (selected incubation time)) was 19% and 19.05%, the “% CDD remaining” value (2 min) was 68.18% and the “%Depletion of CDD” value (2 min) was 31.82%. For the same compound, the “% CDD remaining” value (3 min) was 57.46%, the “%Depletion of CDD” value (3 min) was 42.54% and the “% CDD remaining” value (4 min) was 43.15%. For the same compound, the “%Depletion of CDD” value (4 min) was 56.85%, the “% CDD remaining” value (5 min) was 36.37% and the “%Depletion of CDD” value (5 min) was 63.63%.
